In patent US12448389B2, “BRM targeting compounds and associated methods of use” (Prelude Therapeutics Incorporated, priority 2020, dated 2025) one finds DC50 and Dmax data, which are given here for 6 compounds.

For test [1], the target named is T1, SMARCA2-HiBiT (Homo sapiens, UniProt P51531).
T1 construct: SMARCA2-HiBiT knock-in Hela monoclonal cell (CS302366); host or cells: HeLa monoclonal knock-in line (CRISPR HiBiT knock-in at the endogenous locus, heterozygous)
In words: SMARCA2 HiBiT degradation assay in HeLa cells. It is filed as cell-based. The note with it: 18 hours incubation; for DC50: read-out: HeLa_HiBit-SM2 DC50; for Dmax: HeLa, read-out: HeLa-HiBit-SM2 Dmax (%). Put shortly: (§1)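 HeLa monoclonal lines with heterozygous HiBiT knock-in were seeded at 2500 cells/well in EMEM with 10% FBS and treated with compound for 18 h at 37 °C. Remaining tagged protein was measured by Nano-Glo HiBiT lytic luminescence after 30–60 min at RT, and values came from curve fitting.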

Test [2] deals with T2, SMARCA4-HiBiT (Homo sapiens, UniProt P51532).
T2 construct: SMARCA4-HiBiT knock-in Hela monoclonal cell (CS3023226); host or cells: HeLa monoclonal knock-in line (CRISPR HiBiT knock-in at the endogenous locus, heterozygous)
In words: SMARCA4 HiBiT degradation assay in HeLa cells. The note with it: 18 hours incubation; for DC50: read-out: HeLa-HiBit-SM4 DC50; for Dmax: HeLa, read-out: HeLa-HiBit-SM4 Dmax (%). It is filed as cell-based. A digest of the protocol:
as §1
A general note: HiBiT is a short tag that completes a luciferase, so light tracks the accessible tagged protein.

A value given as a limit tells only on which side of the number the result lay.

T2 sequence (P51532 whole entry): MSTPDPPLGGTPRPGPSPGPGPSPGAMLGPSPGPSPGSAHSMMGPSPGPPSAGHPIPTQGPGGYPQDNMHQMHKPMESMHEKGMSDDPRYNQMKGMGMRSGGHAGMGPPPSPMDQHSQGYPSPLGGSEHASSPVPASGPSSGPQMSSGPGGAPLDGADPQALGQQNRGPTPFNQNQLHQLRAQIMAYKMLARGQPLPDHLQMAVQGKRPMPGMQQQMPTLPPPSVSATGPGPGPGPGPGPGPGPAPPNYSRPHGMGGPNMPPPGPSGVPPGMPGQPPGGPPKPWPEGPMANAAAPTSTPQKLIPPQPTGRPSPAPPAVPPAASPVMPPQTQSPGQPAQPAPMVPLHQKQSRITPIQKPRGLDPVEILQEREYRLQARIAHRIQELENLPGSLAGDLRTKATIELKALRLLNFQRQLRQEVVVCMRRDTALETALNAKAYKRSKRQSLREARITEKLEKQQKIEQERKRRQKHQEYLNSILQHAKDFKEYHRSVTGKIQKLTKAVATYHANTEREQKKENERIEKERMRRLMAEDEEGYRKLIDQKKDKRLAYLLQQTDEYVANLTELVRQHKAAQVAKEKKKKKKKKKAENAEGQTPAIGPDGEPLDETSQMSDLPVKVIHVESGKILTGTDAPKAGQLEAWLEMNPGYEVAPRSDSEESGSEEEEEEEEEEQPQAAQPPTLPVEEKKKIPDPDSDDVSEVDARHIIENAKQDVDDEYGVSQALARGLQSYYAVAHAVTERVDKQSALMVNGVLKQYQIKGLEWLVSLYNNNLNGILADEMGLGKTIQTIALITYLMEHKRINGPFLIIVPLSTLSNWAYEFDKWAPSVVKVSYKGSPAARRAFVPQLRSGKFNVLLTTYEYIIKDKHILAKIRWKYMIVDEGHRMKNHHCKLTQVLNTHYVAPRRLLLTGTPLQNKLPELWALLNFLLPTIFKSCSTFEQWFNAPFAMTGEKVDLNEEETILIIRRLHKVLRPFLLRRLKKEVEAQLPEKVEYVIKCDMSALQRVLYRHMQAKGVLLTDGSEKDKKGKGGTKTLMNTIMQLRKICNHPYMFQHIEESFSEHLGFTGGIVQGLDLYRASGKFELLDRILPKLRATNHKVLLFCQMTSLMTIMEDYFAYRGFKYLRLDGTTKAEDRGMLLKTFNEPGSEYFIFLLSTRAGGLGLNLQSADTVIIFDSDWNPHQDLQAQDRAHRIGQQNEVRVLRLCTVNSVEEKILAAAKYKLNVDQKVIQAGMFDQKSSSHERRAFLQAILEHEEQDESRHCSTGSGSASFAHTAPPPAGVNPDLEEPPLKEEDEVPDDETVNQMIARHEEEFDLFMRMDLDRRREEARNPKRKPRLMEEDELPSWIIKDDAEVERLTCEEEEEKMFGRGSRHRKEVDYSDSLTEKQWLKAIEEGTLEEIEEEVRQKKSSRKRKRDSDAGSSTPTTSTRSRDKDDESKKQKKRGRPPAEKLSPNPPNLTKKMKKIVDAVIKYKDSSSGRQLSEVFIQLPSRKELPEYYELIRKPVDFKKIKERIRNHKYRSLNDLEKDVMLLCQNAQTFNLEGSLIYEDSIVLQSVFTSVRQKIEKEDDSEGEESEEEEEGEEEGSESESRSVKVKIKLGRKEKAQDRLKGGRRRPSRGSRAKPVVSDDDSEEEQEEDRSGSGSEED
T1 sequence (P51531 whole entry): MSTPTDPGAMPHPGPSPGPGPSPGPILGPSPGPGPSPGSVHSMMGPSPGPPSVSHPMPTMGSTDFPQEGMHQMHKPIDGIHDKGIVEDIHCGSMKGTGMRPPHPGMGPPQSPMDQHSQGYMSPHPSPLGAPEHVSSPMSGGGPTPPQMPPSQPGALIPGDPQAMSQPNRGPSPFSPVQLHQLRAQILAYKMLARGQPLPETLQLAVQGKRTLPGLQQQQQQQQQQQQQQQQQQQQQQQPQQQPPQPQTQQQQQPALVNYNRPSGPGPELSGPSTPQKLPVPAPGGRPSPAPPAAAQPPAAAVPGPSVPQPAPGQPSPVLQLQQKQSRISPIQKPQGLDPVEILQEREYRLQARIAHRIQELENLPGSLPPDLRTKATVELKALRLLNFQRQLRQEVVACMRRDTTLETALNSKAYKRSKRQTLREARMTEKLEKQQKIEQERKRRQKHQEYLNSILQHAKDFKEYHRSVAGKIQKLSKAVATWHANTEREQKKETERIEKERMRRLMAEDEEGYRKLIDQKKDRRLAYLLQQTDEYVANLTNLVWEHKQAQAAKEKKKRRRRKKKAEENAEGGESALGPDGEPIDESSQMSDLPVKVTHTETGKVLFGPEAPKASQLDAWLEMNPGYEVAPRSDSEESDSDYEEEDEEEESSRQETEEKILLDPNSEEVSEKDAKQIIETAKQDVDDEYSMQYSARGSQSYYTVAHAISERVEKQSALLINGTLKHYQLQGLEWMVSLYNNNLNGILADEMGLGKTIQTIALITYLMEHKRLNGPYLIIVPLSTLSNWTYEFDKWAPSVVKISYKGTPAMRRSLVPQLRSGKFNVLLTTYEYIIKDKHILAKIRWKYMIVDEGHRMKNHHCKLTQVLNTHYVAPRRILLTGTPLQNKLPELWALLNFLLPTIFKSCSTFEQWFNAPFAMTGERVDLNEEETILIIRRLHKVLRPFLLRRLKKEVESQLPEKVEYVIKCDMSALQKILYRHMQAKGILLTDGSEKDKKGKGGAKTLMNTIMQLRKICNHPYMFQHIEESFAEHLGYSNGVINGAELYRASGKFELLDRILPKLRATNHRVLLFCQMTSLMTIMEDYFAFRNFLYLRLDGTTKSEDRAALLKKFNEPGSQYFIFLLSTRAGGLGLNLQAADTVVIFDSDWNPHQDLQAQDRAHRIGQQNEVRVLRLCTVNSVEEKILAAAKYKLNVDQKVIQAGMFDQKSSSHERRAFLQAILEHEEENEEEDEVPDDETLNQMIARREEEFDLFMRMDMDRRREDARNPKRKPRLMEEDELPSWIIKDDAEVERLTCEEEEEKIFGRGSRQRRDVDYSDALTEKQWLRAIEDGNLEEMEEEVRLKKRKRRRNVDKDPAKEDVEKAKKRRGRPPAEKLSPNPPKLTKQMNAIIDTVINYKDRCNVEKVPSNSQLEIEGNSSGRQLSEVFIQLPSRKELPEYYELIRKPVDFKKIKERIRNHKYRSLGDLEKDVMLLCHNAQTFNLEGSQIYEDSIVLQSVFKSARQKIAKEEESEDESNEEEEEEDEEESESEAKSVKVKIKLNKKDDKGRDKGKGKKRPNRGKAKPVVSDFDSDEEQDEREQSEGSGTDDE

As a reminder, the DC50 is the midpoint of the concentration-degradation curve. Regarding `CCC1CN(CC2CCN(c3ccc4c(c3)C(=O)N(C3CCC(=O)NC3=O)C4)CC2)CCN1C(=O)N1CCN2c3cc(-c4ccccc4O)nnc3NC[C@H]2C1` (stereo partly drawn) [Example 271, 3-(6-(4-((3-ethyl-4-((S)-2-(2-hydroxyphenyl)-6,6a,7,8,9,10-hexahydro-5H-pyrazino[1′,2′:4,5]pyrazino[2,3-c]pyridazine-8-carbonyl)piperazin-1-yl)methyl)piperidin-1-yl)-1-oxoisoindolin-2-yl)piperidine-2,6-dione], the half-maximal degradation concentration (DC50) in test [1] and in test [2] was less than 10 nM each time.

One may read the Dmax as the largest share of the target that was removed. As to `CC1CN(CC2CCN(C(=O)N3CCN4c5cc(-c6ccccc6O)nnc5NC[C@H]4C3)CC2)CCN1c1ccc2c(c1)C(=O)N(C1CCC(=O)NC1=O)C2=O` (stereo partly drawn) [Example 272, 2-(2,6-dioxopiperidin-3-yl)-5-(4-((1-((S)-2-(2-hydroxyphenyl)-6,6a,7,8,9,10-hexahydro-5H-pyrazino[1′,2′:4,5]pyrazino[2,3-c]pyridazine-8-carbonyl)piperidin-4-yl)methyl)-2-methylpiperazin-1-yl)isoindoline-1,3-dione], the half-maximal degradation concentration (DC50) is less than 10 nM in test [1] and 10 to 100 nM in test [2]. In addition, the Dmax was greater than 85% in test [1] and 75 to 85% in test [2].

With `CC1CN(CC2CCN(c3ccc4c(c3)C(=O)N(C3CCC(=O)NC3=O)C4=O)CC2)CC(C)N1C(=O)N1CCN2c3cc(-c4ccccc4O)nnc3NC[C@H]2C1` (stereo partly drawn) [Example 273, 2-(2,6-dioxopiperidin-3-yl)-5-(4-((4-((S)-2-(2-hydroxyphenyl)-6,6a,7,8,9,10-hexahydro-5H-pyrazino[1′,2′:4,5]pyrazino[2,3-c]pyridazine-8-carbonyl)-3,5-dimethylpiperazin-1-yl)methyl)piperidin-1-yl)isoindoline-1,3-dione], in test [1], the DC50 was less than 10 nM and the Dmax is greater than 85%. Also, in test [2], the 50% degradation concentration (DC50) was less than 10 nM and the maximal degradation (Dmax) fell in the range of 75 to 85%.

Regarding `CC1CN(CC2CN(c3ccc4c(c3)C(=O)N(C3CCC(=O)NC3=O)C4=O)C2)CC(C)N1C(=O)N1CCN2c3cc(-c4ccccc4O)nnc3NC[C@H]2C1` (stereo partly drawn) [Example 274, 2-(2,6-dioxopiperidin-3-yl)-5-(3-((4-((S)-2-(2-hydroxyphenyl)-6,6a,7,8,9,10-hexahydro-5H-pyrazino[1 ′,2′:4,5]pyrazino[2,3-c]pyridazine-8-carbonyl)-3,5-dimethylpiperazin-1-yl)methyl)azetidin-1-yl)isoindoline-1,3-dione], in test [1], the DC50 is less than 10 nM and the Dmax is greater than 85%. In test [2], the DC50 is less than 10 nM and the Dmax was 50 to 75%.

Turning to `O=C1CCC(N2C(=O)c3ccc(N4CC(CCN5CCC(CN6CCN7c8cc(-c9ccccc9O)nnc8NC[C@H]7C6)CC5)C4)cc3C2=O)C(=O)N1` (stereo partly drawn) [Example 275, 2-(2,6-dioxopiperidin-3-yl)-5-(3-(2-(4-(((S)-2-(2-hydroxyphenyl)-5,6,6a,7,9,10-hexahydro-8H-pyrazino[1′,2′:4,5]pyrazino[2,3-c]pyridazin-8-yl)methyl)piperidin-1-yl)ethyl)azetidin-1-yl)isoindoline-1,3-dione], the DC50 in test [1] and in test [2] was less than 10 nM throughout. Further, the maximal degradation (Dmax) in test [1] and in test [2] was 75 to 85% each time.

Consider `O=C1CCC(N2Cc3ccc(N4CC(CN5CCC(CN6CCN7c8cc(-c9ccccc9O)nnc8NC[C@H]7C6)CC5)C4)cc3C2=O)C(=O)N1` (stereo partly drawn) [Example 276, 3-(6-(3-((4-(((S)-2-(2-hydroxyphenyl)-5,6,6a,7,9,10-hexahydro-8H-pyrazino[1′,2′:4,5]pyrazino[2,3-c]pyridazin-8-yl)methyl)piperidin-1-yl)methyl)azetidin-1-yl)-1-oxoisoindolin-2-yl) piperidine-2,6-dione], for which, in test [1], the DC50 is less than 10 nM and the Dmax is greater than 85%. In test [2], the DC50 is less than 10 nM and the Dmax was greater than 85%.
